Results published in patent publication US11851695B2, “Preparing novel steviol glycosides by bioconversion” (The Coca-Cola Company, priority 2016, dated 2023).

Assay: Sensory evaluation by a trained panel, single sip protocol
Type: in vivo
Conditions: mean panel score, 400 ppm in water at 4° C.; for Bitter Aftertaste Intensity / Sweet Linger Intensity: 1 minute after tasting; for Overall Max Bitterness / Overall Max Sweetness: from sip up to 1 minute; for Bitter Intensity In Mouth: maximum bitterness in mouth during 5 seconds; for Sweet Intensity In Mouth: maximum sweetness in mouth during 5 seconds
Method: The sensory profiles of CC-00326, CC-00342 and CC-00345 were compared to rebaudioside M.
A trained panel evaluated the various samples. Samples were evaluated using a single sip protocol as follows: • Samples were served at approximately 4° C. • Panelists were instructed to take 1 sip of the sample, hold in mouth for 5 seconds, expectorate, and rate the given attributes • A 5 minute break was placed between each sample and panelists were instructed to cleanse their palates with at least 1 bite of unsalted cracker and 2 sips of filtered water • Due to limited sample quantity panelists were given 7 mL aliquots of each sample • Samples were randomized within each session for each panelist • All samples were presented in replicate in each session
Samples were evaluated for the following: • Sweet taste intensity: maximum level of sweetness in mouth during 5 seconds • Bitter taste intensity: maximum level of bitterness in mouth during 5 seconds • Overall maximum sweet intensity: maximum sweet intensity experienced from the time the sip is taken up to 1 minute • Overall maximum bitter intensity: […] experienced from the time the sip is taken up to 1 minute • Sweet linger intensity: sweet intensity 1 minute after tasting the sample • Bitter aftertaste intensity: bitter intensity 1 minute after tasting the sample
Data was analyzed with an ANOVA, with Sample as fixed effects and Panelist and interaction as random effects was used to determine significance between the samples for each attribute at the 95% Confidence Level, two-tailed. Fishers LSD was used to determine significant differences between mean scores.
The sensory profile of (i) 400 ppm CC-00326 was compared to (ii) 400 ppm Reb M 80% (rebaudioside M content 80% by weight on a dry basis). Both samples (i) and (ii) were formulated in a water matrix at 4° C.
The sensory profile of (i) 400 ppm CC-00342 was compared to (ii) 400 ppm Reb M 95% (rebaudioside M content 95% by weight on a dry basis). Both samples (i) and (ii) were formulated in a water matrix at 4° C.
The sensory profile of (i) 400 ppm CC-00345 was compared to (ii) 400 ppm Reb M 95% (rebaudioside M content 95% by weight on a dry basis). Both samples (i) and (ii) were formulated in a water matrix at 4° C.

[1] = Table 1 (CC-00326 vs Reb M 80%)
[2] = Table 3 (CC-00345 vs Reb M 95%)
[3] = Table 3 (CC-00345 vs Reb M 95%), p = 0.08 at the 90% CL
[4] = Table 2 (CC-00342 vs Reb M 95%)

SMILES: C=C1C[C@@]23CCC4[C@](C)(C(=O)OC5OC(COC6OC(CO)C(O)C(O)C6O)C(O)C(O)C5O)CCC[C@@]4(C)[C@@H]2CCC1(OC1OC(CO)C(O)C(OC2OC(CO)C(O)C(O)C2O)C1OC1OC(CO)C(O)C(O)C1O)C3 (stereo partly drawn) [CC-00326, 13-[(2-O-β-D-glucopyranosyl-3-O-β-D-glucopyranosyl-β-D-glucopyranosyl)oxy] ent-kaur-16-en-19-oic acid-[(6-O-α-D-glucopyranosyl-β-D-glucopyranosyl) ester]]
- Bitter Aftertaste Intensity [1]: 0.9 A
- Sweet Linger Intensity [1]: 3.9 A
- Overall Max Bitterness [1]: 1.6 B
- Overall Max Sweetness [1]: 7.9 A
- Bitter Intensity In Mouth [1]: 0.8 B
- Sweet Intensity In Mouth [1]: 6.9 B

SMILES: C=C1C[C@@]23CCC4[C@](C)(C(=O)OC5OC(COC6OC(CO)C(O)C(O)C6O)C(O)C(OC6OC(CO)C(O)C(O)C6O)C5OC5OC(CO)C(O)C(O)C5O)CCC[C@@]4(C)[C@@H]2CCC1(OC1OC(CO)C(O)C(OC2OC(CO)C(O)C(O)C2O)C1OC1OC(CO)C(O)C(O)C1O)C3 (stereo partly drawn) [CC-00345]
- Bitter Aftertaste Intensity [2]: 1.8 A
- Sweet Linger Intensity [2]: 3.9 A
- Overall Max Sweetness [2]: 7.2 A
- Overall Max Bitterness [3]: 2.2 A
- Bitter Intensity In Mouth [2]: 1.3 A
- Sweet Intensity In Mouth [2]: 6.6 A

SMILES: C=C1C[C@@]23CCC4[C@](C)(C(=O)OC5OC(COC6OC(CO)C(O)C(O)C6O)C(O)C(O)C5OC5OC(CO)C(O)C(O)C5O)CCC[C@@]4(C)[C@@H]2CCC1(OC1OC(CO)C(O)C(OC2OC(CO)C(O)C(O)C2O)C1OC1OC(CO)C(O)C(O)C1O)C3 (stereo partly drawn) [CC-00342]
- Bitter Aftertaste Intensity [4]: 1.0
- Sweet Linger Intensity [4]: 3.8 A
- Overall Max Bitterness [4]: 2.0
- Overall Max Sweetness [4]: 8.1 A
- Bitter Intensity In Mouth [4]: 1.2
- Sweet Intensity In Mouth [4]: 6.7 A

SMILES: C=C1C[C@@]23CC[C@H]4[C@@](C)(CCC[C@@]4(C)C(=O)O[C@@H]4O[C@H](CO)[C@@H](O)[C@H](O[C@@H]5O[C@H](CO)[C@@H](O)[C@H](O)[C@H]5O)[C@H]4O[C@@H]4O[C@H](CO)[C@@H](O)[C@H](O)[C@H]4O)[C@@H]2CC[C@]1(O[C@@H]1O[C@H](CO)[C@@H](O)[C@H](O[C@@H]2O[C@H](CO)[C@@H](O)[C@H](O)[C@H]2O)[C@H]1O[C@@H]1O[C@H](CO)[C@@H](O)[C@H](O)[C@H]1O)C3 [Reb M 95%, rebaudioside M]
- Bitter Aftertaste Intensity [4]: 1.0
- Sweet Linger Intensity [4]: 4.5 A
- Overall Max Bitterness [4]: 2.0
- Overall Max Sweetness [4]: 8.5 A
- Bitter Intensity In Mouth [4]: 1.1
- Sweet Intensity In Mouth [4]: 7.0 A
- Bitter Aftertaste Intensity [2]: 1.3 A
- Sweet Linger Intensity [2]: 3.6 A
- Overall Max Sweetness [2]: 7.4 A
- Overall Max Bitterness [3]: 1.5 A
- Bitter Intensity In Mouth [2]: 1.3 A
- Sweet Intensity In Mouth [2]: 7.1 A

SMILES: C=C1C[C@@]23CC[C@H]4[C@@](C)(CCC[C@@]4(C)C(=O)O[C@@H]4O[C@H](CO)[C@@H](O)[C@H](O[C@@H]5O[C@H](CO)[C@@H](O)[C@H](O)[C@H]5O)[C@H]4O[C@@H]4O[C@H](CO)[C@@H](O)[C@H](O)[C@H]4O)[C@@H]2CC[C@]1(O[C@@H]1O[C@H](CO)[C@@H](O)[C@H](O[C@@H]2O[C@H](CO)[C@@H](O)[C@H](O)[C@H]2O)[C@H]1O[C@@H]1O[C@H](CO)[C@@H](O)[C@H](O)[C@H]1O)C3 [Reb M 80%, rebaudioside M]
- Bitter Aftertaste Intensity [1]: 1.1 A
- Sweet Linger Intensity [1]: 4.3 A
- Overall Max Bitterness [1]: 2.3 A
- Overall Max Sweetness [1]: 9.0 A
- Bitter Intensity In Mouth [1]: 1.6 A
- Sweet Intensity In Mouth [1]: 8.3 A
